Columns and labels:
[1] = cited from earlier work
astrocytes = assay: Astrocytes by GFAP immunofluorescence; assay type: in vivo, mouse; conditions: 0.3 mg/kg every three days
Protocol: Representative images of astrocytes stained for GFAP (red) in the cerebellum, hippocampus and cortex of wt and ASMko mice treated or not with PF-04457845. […] Graphs show mean±SEM GFAP intensity in arbitrary units (n=7, **p<0.01, *p<0.05).
(§1) Treatment started at 7 weeks of age and continued for 8 weeks. PF-04457845 was dissolved in 0.9% NaCl and delivered through oral gavage at a dose of 0.3 mg/kg every three days. We chose this dose based on the studies published by Ahn et al., (J Pharm Exp Ther 2011). Control groups received same volume of 0.9% NaCl without PF-04457845.
Brain inflammation was determined by analysis of glial cells in the cerebellum, hippocampus and cortex. The number and morphology of microglia was analyzed by immunofluorescence staining with the marker iba-1 (FIG. 16). […] PF-04457845 treatment had no effect in microglia of wt mice. The amount of astrocytes was analyzed by immunofluorescence with the marker GFAP (FIG. 17). […] PF-04457845 treatment had no effect in astrocytes of wt mice (FIG. 17).

[2] = system: cultured primary hippocampal neurons from ASMko mice; assay: Sphingomyelin levels by enzymatic assay in cultured primary hippocampal neurons from ASMko mice; assay type: cell-based, mouse
Source text: FIGS. 5A-5D show sphingomyelin and endocannabinoid levels in cultured primary hippocampal neurons and hippocampal tissue, respectively, from ASMko and wildtype mice.
Statistical significance Student's t-test, *P<0.05, **P<0.005, n=3 independent cultures.
Statistical significance Student's t-test, **P<0.005, n=3 independent cultures.
Anandamide (AEA) is the major endogenous CB1 ligand. We therefore tested whether increased levels of anandamide affected sphingomyelin levels in cultured primary hippocampal neurons from ASMko mice. Anandamide was increased in two ways: • 1. By incubating the neuronal cultures with exogenous anandamide; and • 2. By incubating the neuronal cultures with PF-04457845, which is an inhibitor of the anandamide hydrolytic enzyme FAAH. Inhibition of FAAH causes accumulation of anandamide by inhibiting FAAH-mediated hydrolyzation of anandamide.
The following experiments were performed in three independent cultures of hippocampal neurons derived from ASMko mice. Treatments were done at 11-13 days in vitro when these cells are considered mature and functional.
To set the optimal conditions for such hydrolysis in terms of concentration and time of incubation, anandamide was added to the culture medium of mature ASMko hippocampal neurons at 0, 5, 25, 50 and 100 μM for 30 minutes or 1 hour. […] The optimal conditions for SM degradation were in a range of concentration of 25-50 μM for 1 hour. […] We therefore decided to use 25 μM anandamide for 1-hour incubation time in our next experiments.
Similar to the anandamide dose/time response experiment above, we performed another dose response experiment using URB597 (URB), an inhibitor of the anandamide-hydrolyzing enzyme FAAH, to be used as reference for the other FAAH inhibitors. The experiments were done in the presence or absence of exogenous anandamide. URB was added to the culture medium of ASMko mature neurons at 0, 5, 25 and 50 μM for 1 hour with or without □□ μM anandamide.
We next compared URB efficacy to reduce SM levels with that of other FAAH inhibitors PF-04457845 (PF) and JNJ-1661010 (JNJ).

pediatric ASMD patient = assay: Single patient preliminary clinical trial: liver enzymes ALT and AST; assay type: in vivo, human
Source text: Based on the compelling safety and efficacy data from the ASMko mouse model, we submitted an expanded access request to the Food and Drug Administration for a single patient preliminary clinical trial to assess the effect of PF-04457845 administration to a single pediatric ASMD patient. The FDA approved the trial, and it is presently ongoing. The patient received their first does of PF-04457845 (which is being administered via NG-tube delivery) nearly one year ago now, and the patient will continue to be monitored for improvement in ASMD-related symptoms and/or markers.
Although clinical trial data is not available to us yet, it is worth noting as per the normal standard of care for this patient, weekly or biweekly monitoring of liver enzymes alanine aminotransferase (ALT) and aspartate transaminase (AST) has been ongoing since before initiation of the trial and these analyses are ongoing. Elevated blood levels of AST and ALT are seen in 50%-75% of ASMD patients (McGovern M, et al., Orphanet J Rare Dis. 2017; 12: 41) and are indicative of liver damage caused by the progression of the disease. […] Moreover, ALT/AST ratios appear stable.

wt and ASMko mice [3] = assay: Sphingomyelin levels by enzymatic assay in tissue extracts after 8-week treatment; assay type: in vivo, mouse; conditions: 0.3 mg/kg every three days, 8 weeks
Protocol: as §1
Sphingomyelin levels were measured by enzymatic assays in extracts of different brain areas and in liver, spleen, and lung (FIG. 14).

Purkinje cells = assay: Lysosomal size by Lamp1 staining of Purkinje cells; assay type: in vivo, mouse; conditions: ASMko mice, 0.3 mg/kg every three days
Protocol: FIGS. 15A-15D show representative images of Purkinje cells from wildtype and ASMko mice treated or not treated with PF-04457845.
as §1
Purkinje cell death was analyzed by Calbindin1 staining in the cerebellum of wt and ASMko treated or not with PF-04457845 (FIG. 15A). Loss of Purkinje cells was prominent in non-treated ASMko mice compared to wt. […] PF-04457845 treatment had no effect on Purkinje cell survival in wt mice. We also analyzed Lysosomal size by staining Purkinje cells of the cerebellum for Lamp1 expression in samples from wt and ASMko mice treated or not treated with PF-04457845 (FIG. 15B). Lysosomal size was increased by an average 45% in the non-treated ASMko compared to wt mice consistent with sphingomyelin accumulation in these organelles. This alteration was prevented to a significant extent (35%) in the ASMko mice treated with PF.

wt and ASMko mice [4] = assay: Tail Suspension Test; assay type: in vivo, mouse; conditions: 0.3 mg/kg every three days
Protocol: FIGS. 13A-13C show the effect of PF-04457845 treatment on various behavioral functions. […] (n=14; **p<0.01, *p<0.05).
as §1
Mood alterations were monitored by the Tail Suspension Test (FIG. 13B) and by the Elevated Plus Maze test (FIG. 13C) that give an idea of depressive state and anxiety, respectively. […] PF-04457845 treatment had no effect in the behavior of wt mice.

[5] = about one year of treatment via NG-tube, preliminary

O=C(Nc1cccnn1)N1CCC(=Cc2cccc(Oc3ccc(C(F)(F)F)cn3)c2)CC1 [PF-04457845]
doses that seem to be safe in rodents ([1]; Ahn et al., 2011): up to 10 mg/kg | selectivity ([1]; Ahn et al., J Pharm Exp Ther 2011): exceptional selectivity | duration of action in vivo ([1]; rodents, Ahn et al. 2011): long duration of action | pharmacokinetic properties ([1]; rodents, Ahn et al. 2011): optimal pharmacokinetic properties | GFAP intensity in cerebellum, hippocampus and cortex (astrocytes; ASMko mice): reduced GFAP intensity in all areas but the effect was significant only in the cerebellum | astrocytes (GFAP) (astrocytes; wt mice): no effect | SM hydrolysis ([2]; 50 μM and 1 hour (FIG. 8)): promoted SM hydrolysis | sphingomyelin levels ([2]; ASMko neurons, 1 hour incubation (FIG. 5A)): reduced sphingomyelin levels | ALT/AST ratios (pediatric ASMD patient; about one year of treatment): stable | ALT, current value relative to pre-treatment (pediatric ASMD patient; [5]): approximately half | AST, current value relative to pre-treatment (pediatric ASMD patient; [5]): approximately half | tolerability (pediatric ASMD patient; about one year of treatment, preliminary): well tolerated without signs of liver toxicity | sphingomyelin levels in cerebellum (wt and ASMko mice [3]; ASMko mice): significant reduction of sphingomyelin | sphingomyelin levels in cortex (wt and ASMko mice [3]; ASMko mice): significant reduction of sphingomyelin | sphingomyelin levels in hippocampus (wt and ASMko mice [3]; ASMko mice): significant reduction of sphingomyelin | sphingomyelin levels in liver (wt and ASMko mice [3]; ASMko mice): significant reduction of sphingomyelin | sphingomyelin levels in lung (wt and ASMko mice [3]; ASMko mice): non-statistically significant trend towards a decrease | sphingomyelin levels in spleen (wt and ASMko mice [3]; ASMko mice): significant reduction of sphingomyelin | sphingomyelin levels in tissues (wt and ASMko mice [3]; wt mice): did not alter sphingomyelin levels | increase of lysosomal size prevented (Lamp1) (Purkinje cells): 35% | behavior in Tail Suspension Test (depressive state) (wt and ASMko mice [4]; ASMko mice): normalized | behavior in Tail Suspension Test (wt and ASMko mice [4]; wt mice): no effect
